Reference: PubChem BioAssay AID1845217 (Molecular Pharmacology Branch, DTP, NCI, 2023)

Tested on: VA-ES-BJ tumor spheroid viability
Test: Anticancer human tumor VA-ES-BJ cell line growth inhibition;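 also: spheroids exposed to compounds for seven days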;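 as to viability, T/C: percent of DMSO vehicle control viability so 100% = untreated growth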
Conditions: spheroids with HUVEC and MSC; for IC50: curve of first compound; for viability, T/C: stronger effect = lower value; active = viability on the fitted dose curve at most 10% of control; inactive = the rest
Description: Multicellular complex tumor spheroid response to DNA repair inhibitors in combination with DNA-damaging drugs
This study explores the anticancer activities of DNA-damaging drugs and inhibitors of DNA damage repair, both as single agents and in combinations. Complex tumor spheroids comprised of malignant cells, endothelial cells and mesenchymal stem cells served as an in vitro model for human solid tumors. This model system incorporates physiologically relevant features and patient-derived or established malignant cell lines with clinically relevant genetic alterations from many tumor types. Twenty-six patient-derived or established malignant cell lines were evaluated representing sarcoma, melanoma, small cell lung cancer (SCLC), non-small cell lung cancer (NSCLC), as well as bladder, ovarian and pancreatic cancers. The concentration ranges selected for each drug and investigational agent were based upon clinically achievable concentrations if the clinical Cmax of the agent was known.
Compounds. The drugs and compounds olaparib (NSC753686), talazoparib (NSC767125), berzosertib (NSC777718), elimusertib (NSC800525), nedisertib (NSC802822), VX-984 (NSC792969), AZD-1390 (NSC803789), temozolomide (NSC362856), topotecan (NSC609699), trabectedin (NSC813783), staurosporine (NSC755774), and gemcitabine (NSC613327) were obtained from the National Cancer Institute (NCI) Developmental Therapeutics Program Chemical Repository. The FDA-approved anticancer drug set is available from the Developmental Therapeutics Program at https://dtp.cancer.gov/organization/dscb/obtaining/available_plates.htm. […] The stock solutions were prepared in dimethyl sulfoxide (DMSO, Sigma-Aldrich, St. Louis, MO, cat. D2650) at 400-fold the tested concentration and stored at -70 degrees C. Prior to their use, the stock solutions were diluted in fresh medium and the final DMSO concentration in the assay was 0.25% (v/v). All drugs and investigational agents were tested over a range starting from a high concentration at or near the clinical Cmax and decreasing in half-log increments. If the clinical Cmax for an agent had not been determined, the highest concentration tested was 10 microM.
Cell Lines. The patient-derived cancer cell (PDC) lines: 156681-154-R-J1-PDC, 283228-195-R-J1-PDC, 287954-098-R-J1-PDC, 292921-168-R-J2-PDC, 349418-098-R-PDC, 425362-245-T-J1-PDC, 556581-035-R-J1-PDC, and BL0293-F563-PDC were received from the NCI Patient-Derived Models Repository (PDMR, https://pdmr.cancer.gov). The established cell lines HS-SY-2 (RRID:CVCL_8719), MPNST, and SYO-1 (RRID:CVCL_7146) were obtained from the Sloan Kettering Institute. The alveolar soft parts sarcoma cell line ASPS-1 (RRID:CVCL_S738) was established at the NCI and grown from internal seed stocks. The following established cell lines were purchased from the American Type Culture Collection (ATCC, Manassas, VA): G-401 (ATCC, cat. CRL-1441, RRID:CVCL_0270), SW982 (ATCC, cat. HTB-93, RRID:CVCL_1734), VA-ES-BJ (ATCC, cat. CRL-2138, RRID:CVCL_1785), NCI-H719 (ATCC, cat. CRL-5837, RRID:CVCL_1582), NCI-H196 (ATCC, cat. CRL-5823, RRID:CVCL_1509), NCI-H841 (ATCC, cat. CRL-5845, RRID:CVCL_1595), NCI-H1618 (ATCC, cat. CRL-5879, RRID:CVCL_1480), NCI-H1876 (ATCC, cat. CRL-5902, RRID:CVCL_1503), DMS 114 (ATCC, cat. CRL-2066; RRID:CVCL_1174), NCI-H211 (ATCC, cat. CRL-5824; RRID:CVCL_1529), and SW 1271 (ATCC, cat. CRL-2177, RRID:CVCL_1716). The small cell lung cancer cell line COR-L88 was purchased from Sigma-Aldrich (cat. 92031917-1VL, RRID:CVCL_1141). The non-small cell lung cancer cell lines NCI-H226 (RRID:CVCL_1544) and NCI-H322M (RRID:CVCL_1557) were established at the NCI and grown from internal seed stocks. Pooled donor human umbilical vein endothelial cells (HUVEC, Lonza, cat. CC-2519) and human mesenchymal stem cells (hMSC, Lonza, cat. PT-2501) were purchased from Lonza (Walkersville, MD).
Cell Culture. All cells were maintained in an incubator at 37 degrees C and 5% CO2 with 95% humidity. […]

[1] = second compound 0.003 µM, first compound 0.00949 µM
[2] = second compound 0.003 µM, first compound 0.03 µM
[3] = second compound 0.003 µM, first compound 0.0949 µM
[4] = second compound 0.003 µM, first compound 0.3 µM
[5] = second compound 0.003 µM, first compound 0.949 µM
[6] = second compound 0.003 µM, first compound 3 µM
[7] = second compound 0.00949 µM, first compound 0.00949 µM
[8] = second compound 0.00949 µM, first compound 0.03 µM
[9] = second compound 0.00949 µM, first compound 0.0949 µM
[10] = second compound 0.00949 µM, first compound 0.3 µM
[11] = second compound 0.00949 µM, first compound 0.949 µM
[12] = second compound 0.00949 µM, first compound 3 µM
[13] = second compound 0.03 µM, first compound 0.00949 µM
[14] = second compound 0.03 µM, first compound 0.03 µM
[15] = second compound 0.03 µM, first compound 0.0949 µM
[16] = second compound 0.03 µM, first compound 0.3 µM
[17] = second compound 0.03 µM, first compound 0.949 µM
[18] = second compound 0.03 µM, first compound 3 µM
[19] = second compound 0.0949 µM, first compound 0.00949 µM
[20] = second compound 0.0949 µM, first compound 0.03 µM
[21] = second compound 0.0949 µM, first compound 0.0949 µM
[22] = second compound 0.0949 µM, first compound 0.3 µM
[23] = second compound 0.0949 µM, first compound 0.949 µM
[24] = second compound 0.0949 µM, first compound 3 µM
[25] = second compound 0.3 µM, first compound 0.00949 µM
[26] = second compound 0.3 µM, first compound 0.03 µM
[27] = second compound 0.3 µM, first compound 0.0949 µM
[28] = second compound 0.3 µM, first compound 0.3 µM
[29] = second compound 0.3 µM, first compound 0.949 µM
[30] = second compound 0.3 µM, first compound 3 µM

CNCc1ccc(-c2cc(-c3nc(-c4ccc(S(=O)(=O)C(C)C)cc4)cnc3N)on2)cc1 + CC[C@@]1(O)C(=O)OCc2c1cc1n(c2=O)Cc2cc3c(CN(C)C)c(O)ccc3nc2-1
0.139 µM: IC50 (second compound 0.00949 µM)
active: viability, T/C [6] 6.06% | viability, T/C [12] 4.37% | viability, T/C [18] 3.26% | viability, T/C [21] 13.8% | viability, T/C [22] 10.3% | viability, T/C [23] 5.27% | viability, T/C [24] 2.78% | viability, T/C [25] 4.36% | viability, T/C [26] 5.51% | viability, T/C [27] 5.44% | viability, T/C [28] 4.99% | viability, T/C [29] 4.31% | viability, T/C [30] 3.27%
< 0.00949 µM: IC50 (second compound 0.03 µM) | IC50 (second compound 0.0949 µM) | IC50 (second compound 0.3 µM)
0.258 µM: IC50 (second compound 0.003 µM)
inactive: viability, T/C [1] 90.9% | viability, T/C [2] 83% | viability, T/C [3] 71.7% | viability, T/C [4] 49.4% | viability, T/C [5] 15.1% | viability, T/C [7] 86.5% | viability, T/C [8] 81.1% | viability, T/C [9] 59% | viability, T/C [10] 30.7% | viability, T/C [11] 12.4% | viability, T/C [13] 42.3% | viability, T/C [14] 42.3% | viability, T/C [15] 38.1% | viability, T/C [16] 27.9% | viability, T/C [17] 9.05% | viability, T/C [19] 8.5% | viability, T/C [20] 10%

Cn1ncnc1[C@H]1c2n[nH]c(=O)c3cc(F)cc(c23)N[C@@H]1c1ccc(F)cc1 + CC[C@@]1(O)C(=O)OCc2c1cc1n(c2=O)Cc2cc3c(CN(C)C)c(O)ccc3nc2-1
inactive: viability, T/C [1] 70.4% | viability, T/C [2] 54.7% | viability, T/C [3] 57.9% | viability, T/C [4] 44.7% | viability, T/C [5] 22.9% | viability, T/C [7] 43.9% | viability, T/C [8] 33.5% | viability, T/C [9] 28.4% | viability, T/C [10] 21% | viability, T/C [11] 10.6% | viability, T/C [13] 9.86%
active: viability, T/C [6] 5.42% | viability, T/C [12] 6.84% | viability, T/C [14] 8.29% | viability, T/C [15] 7.12% | viability, T/C [16] 6.39% | viability, T/C [17] 4.2% | viability, T/C [18] 3.72% | viability, T/C [19] 7.58% | viability, T/C [20] 7.39% | viability, T/C [21] 8.32% | viability, T/C [22] 8.9% | viability, T/C [23] 4.82% | viability, T/C [24] 3.16% | viability, T/C [25] 9.11% | viability, T/C [26] 9.07% | viability, T/C [27] 8.75% | viability, T/C [28] 9.02% | viability, T/C [29] 8.91% | viability, T/C [30] 7.66%
0.15 µM: IC50 (second compound 0.003 µM)
< 0.00949 µM: IC50 (second compound 0.00949 µM) | IC50 (second compound 0.03 µM) | IC50 (second compound 0.0949 µM) | IC50 (second compound 0.3 µM)

O=C(c1cc(Cc2n[nH]c(=O)c3ccccc23)ccc1F)N1CCN(C(=O)C2CC2)CC1 + CC[C@@]1(O)C(=O)OCc2c1cc1n(c2=O)Cc2cc3c(CN(C)C)c(O)ccc3nc2-1
2.08 µM: IC50 (second compound 0.00949 µM)
active: viability, T/C [17] 11.7% | viability, T/C [18] 8.85% | viability, T/C (second compound 0.03 µM, first compound 9.49 µM) 4.72% | viability, T/C (second compound 0.03 µM, first compound 30 µM) 3.5% | viability, T/C [21] 6.59% | viability, T/C [22] 7.45% | viability, T/C [23] 7.51% | viability, T/C [24] 7.62% | viability, T/C (second compound 0.0949 µM, first compound 9.49 µM) 6.91% | viability, T/C (second compound 0.0949 µM, first compound 30 µM) 2.51% | viability, T/C [27] 7.75% | viability, T/C [28] 8% | viability, T/C [29] 8.29% | viability, T/C [30] 8.19% | viability, T/C (second compound 0.3 µM, first compound 9.49 µM) 7.94% | viability, T/C (second compound 0.3 µM, first compound 30 µM) 4.56%
12 µM: IC50 (second compound 0.003 µM)
< 0.0949 µM: IC50 (second compound 0.03 µM) | IC50 (second compound 0.0949 µM) | IC50 (second compound 0.3 µM)
inactive: viability, T/C [3] 79.5% | viability, T/C [4] 86.5% | viability, T/C [5] 84.7% | viability, T/C [6] 72.9% | viability, T/C (second compound 0.003 µM, first compound 9.49 µM) 54.3% | viability, T/C (second compound 0.003 µM, first compound 30 µM) 35.1% | viability, T/C [9] 54.4% | viability, T/C [10] 62% | viability, T/C [11] 56.3% | viability, T/C [12] 46% | viability, T/C (second compound 0.00949 µM, first compound 9.49 µM) 30.9% | viability, T/C (second compound 0.00949 µM, first compound 30 µM) 13.7% | viability, T/C [15] 11.3% | viability, T/C [16] 11.9%
